One assay has as its target T1, human Gcg receptor (Homo sapiens, UniProt P47871).
T1 construct: expressed in transfected cells; crude membranes
In words: [125I]-Glucagon binding (SPA), human Gcg receptor. The following applies: read-out: hGLcgR Ki, nM (SEM, n). An outline of the steps: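 Scintillation counts are taken after membranes and WGA beads incubate and settle for 12 hours at room temperature. Buffer is 25 mM HEPES, pH 7.4, with CaCl2, MgCl2, bacitracin and Tween-20. Ki values, from four-parameter IC50 fits, are geometric means over independent days.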

The next assay has as its target T2, human GIP receptor (Homo sapiens, UniProt P48546).
T2 construct: expressed in transfected cells; crude membranes
T2 sequence (P48546 22-466): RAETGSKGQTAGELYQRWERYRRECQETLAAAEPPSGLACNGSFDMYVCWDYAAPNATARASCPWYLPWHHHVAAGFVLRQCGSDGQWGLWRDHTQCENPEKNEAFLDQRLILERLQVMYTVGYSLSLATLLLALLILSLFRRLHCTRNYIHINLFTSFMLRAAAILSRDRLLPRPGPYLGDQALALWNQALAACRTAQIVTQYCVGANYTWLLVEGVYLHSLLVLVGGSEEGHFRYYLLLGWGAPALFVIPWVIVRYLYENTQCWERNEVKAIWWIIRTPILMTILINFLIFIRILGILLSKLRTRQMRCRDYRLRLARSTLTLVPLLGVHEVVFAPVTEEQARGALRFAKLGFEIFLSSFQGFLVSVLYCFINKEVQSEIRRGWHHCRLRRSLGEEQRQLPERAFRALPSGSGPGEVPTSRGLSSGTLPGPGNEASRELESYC
In words: [125I]-GIP binding (SPA), human GIP receptor. As to conditions: read-out: hGIPR Ki, nM (SEM, n).

The target in assay [1] is human GLP-1 receptor (GLP-1R) (Homo sapiens, UniProt P43220). In words: cAMP pharmacological functional assay in presence of casein, hGLP-1R. Format: cell-based. The following applies: HEK293 cells expressing hGLP-1R, 0.1% Casein, geometric mean; read-out: hGLP1R cAMP Rel EC50 nM (SEM, n).
Sequence of human GLP-1 receptor (GLP-1R) (P43220 24-463): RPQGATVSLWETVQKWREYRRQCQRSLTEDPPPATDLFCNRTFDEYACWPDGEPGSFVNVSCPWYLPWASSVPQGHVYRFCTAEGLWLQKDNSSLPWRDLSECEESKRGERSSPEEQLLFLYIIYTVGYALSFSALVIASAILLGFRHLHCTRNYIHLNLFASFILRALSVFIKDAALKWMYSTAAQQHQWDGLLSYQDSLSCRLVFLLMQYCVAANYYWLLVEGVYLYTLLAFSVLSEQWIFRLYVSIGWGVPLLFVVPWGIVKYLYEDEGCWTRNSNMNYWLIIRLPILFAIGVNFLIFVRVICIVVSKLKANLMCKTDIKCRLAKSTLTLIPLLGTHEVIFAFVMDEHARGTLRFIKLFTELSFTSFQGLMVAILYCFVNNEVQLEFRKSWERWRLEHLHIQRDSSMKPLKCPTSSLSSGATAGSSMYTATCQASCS
In assay [2] the target is T3, gastric inhibitory peptide receptor (GIPR) (Homo sapiens, UniProt P48546).
T3 sequence (P48546 22-466): T2 sequence (P48546 22-466)
In words: cAMP pharmacological functional assay in presence of casein, hGIPR. Format: cell-based. As to conditions: HEK293 cells expressing hGIPR, 0.1% Casein, geometric mean; read-out: hGIPR cAMP Rel EC50 nM (SEM, n).

Another assay concerns the target human GLP-1R (Homo sapiens, UniProt P43220). In words: [125I]-GLP-1 binding (SPA), human GLP-1 receptor. Also on record: expressed in transfected cells; crude membranes. As to conditions: read-out: hGLP1R Ki, (nM) (SEM, n). An outline of the steps:
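Frozen cell pellets are lysed on ice in hypotonic Tris buffer, pH 7.5, homogenized, and centrifuged to a membrane pellet resuspended at about 1 to 3 mg/mL. Binding is then measured in HEPES-based buffer at pH 7.4, and curves are fitted to give IC50 and Ki.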

Numbered stars: 1 amine (or outer) side, 2 acyl side, 3 side chain; on linkers, the order of the positions; unused ones are H or OH. Square brackets hold non-standard residues; d marks the D form. Side chains are listed from the residue outwards. Peptide text beside a SMILES is read from it. * marks the point of attachment. C20 diacid = O=C(O)CCCCCCCCCCCCCCCCCCC(=O)*; γGlu = O=C(O)[C@H](CCC(=O)[*:2])N[*:1]; AEEA = NCCOCCOCC(=O)O; Aib = CC(C)(N)C(=O)O Some results are limits rather than exact numbers.

Sequence of human GLP-1R (P43220 24-463): as above
T1 sequence (P47871 26-477): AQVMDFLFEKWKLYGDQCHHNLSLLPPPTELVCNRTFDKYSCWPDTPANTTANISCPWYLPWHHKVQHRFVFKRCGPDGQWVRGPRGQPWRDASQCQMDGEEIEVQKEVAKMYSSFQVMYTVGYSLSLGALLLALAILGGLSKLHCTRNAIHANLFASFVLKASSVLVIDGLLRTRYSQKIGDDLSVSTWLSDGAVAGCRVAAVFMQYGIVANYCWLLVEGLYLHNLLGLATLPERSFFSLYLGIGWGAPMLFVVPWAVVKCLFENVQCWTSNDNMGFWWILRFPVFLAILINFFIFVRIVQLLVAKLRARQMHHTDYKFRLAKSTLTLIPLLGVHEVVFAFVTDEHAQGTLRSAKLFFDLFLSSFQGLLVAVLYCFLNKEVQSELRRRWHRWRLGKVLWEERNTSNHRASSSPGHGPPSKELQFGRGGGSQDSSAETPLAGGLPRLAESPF

In general, Ki refers to the dissociation constant of the complex between target and ligand, obtained from inhibition or displacement. As a reminder, the EC50 is the concentration that produces a half-maximal response. Turning to `CC[C@H](C)[C@H](NC(=O)[C@H](CC(C)C)NC(=O)[C@H](Cc1ccc(O)cc1)NC(=O)[C@H](CCC(=O)O)NC(=O)[C@@H](NC(=O)[C@H](Cc1ccccc1)NC(=O)[C@H](C)NC(=O)[C@H](CCCCNC(=O)COCCOCCNC(=O)COCCOCCNC(=O)CC[C@H](NC(=O)CCCCCCCCCCCCCCCCCCC(=O)O)C(=O)O)NC(=O)[C@H](CCC(N)=O)NC(=O)[C@H](C)NC(=O)[C@@H](NC(=O)C(C)(C)NC(=O)[C@H](CC(=O)O)NC(=O)[C@H](CC(C)C)NC(=O)[C@H](CC(C)C)NC(=O)[C@@H](NC(=O)[C@H](CO)NC(=O)[C@H](Cc1ccc(O)cc1)NC(=O)[C@H](CC(=O)O)NC(=O)[C@H](CO)NC(=O)[C@@H](NC(=O)[C@H](Cc1ccccc1)NC(=O)[C@@H](NC(=O)CNC(=O)[C@H](CCC(=O)O)NC(=O)C(C)(C)NC(=O)[C@@H](N)Cc1ccc(O)cc1)[C@@H](C)O)[C@@H](C)O)[C@@H](C)CC)[C@@H](C)CC)[C@@H](C)CC)C(=O)N[C@@H](CCC(=O)O)C(=O)NCC(=O)NCC(=O)N1CCC[C@H]1C(=O)N[C@@H](CO)C(=O)N[C@@H](CO)C(=O)NCC(=O)N[C@@H](C)C(=O)N1CCC[C@H]1C(=O)N1CCC[C@H]1C(=O)N1CCC[C@H]1C(=O)N[C@@H](CO)C(N)=O` [Example 13] (H-Y[Aib]EGTFTSDYSILLD[Aib]IAQK([AEEA-AEEA-γGlu-C20 diacid])AFIEYLIEGGPSSGAPPPS-NH2), the figures for the Ki at human Gcg receptor, at human GIP receptor and on human GLP-1R were over 1060 nM, 0.296 nM and 31.1 nM, respectively. The EC50 in assay [1] is 5.39 nM; in assay [2], 1.05 nM.
Take `CC[C@H](C)[C@H](NC(=O)[C@H](CCCCN)NC(=O)[C@H](CC(=O)O)NC(=O)[C@H](CC(C)C)NC(=O)[C@H](CC(C)C)NC(=O)[C@@H](NC(=O)[C@H](CO)NC(=O)[C@H](Cc1ccc(O)cc1)NC(=O)[C@H](CC(=O)O)NC(=O)[C@H](CO)NC(=O)[C@@H](NC(=O)[C@H](Cc1ccccc1)NC(=O)[C@@H](NC(=O)CNC(=O)[C@H](CCC(=O)O)NC(=O)C(C)(C)NC(=O)[C@@H](N)Cc1ccc(O)cc1)[C@@H](C)O)[C@@H](C)O)[C@@H](C)CC)C(=O)N[C@@H](C)C(=O)N[C@@H](CCC(N)=O)C(=O)N[C@@H](CCCCNC(=O)COCCOCCNC(=O)COCCOCCNC(=O)CC[C@H](NC(=O)CCCCCCCCCCCCCCCCCCC(=O)O)C(=O)O)C(=O)N[C@@H](CCC(=O)O)C(=O)N[C@@H](Cc1ccccc1)C(=O)N[C@H](C(=O)N[C@@H](CCC(N)=O)C(=O)N[C@@H](Cc1ccc(O)cc1)C(=O)N[C@@H](CC(C)C)C(=O)N[C@@H](CC(C)C)C(=O)N[C@@H](CCC(=O)O)C(=O)NC(C)(C)C(=O)NCC(=O)N1CCC[C@H]1C(=O)N[C@@H](CO)C(=O)N[C@@H](CO)C(=O)NCC(=O)N[C@@H](C)C(=O)N1CCC[C@H]1C(=O)N1CCC[C@H]1C(=O)N1CCC[C@H]1C(=O)N[C@@H](CO)C(N)=O)[C@@H](C)CC` [Example 14] (H-Y[Aib]EGTFTSDYSILLDKIAQK([AEEA-AEEA-γGlu-C20 diacid])EFIQYLLE[Aib]GPSSGAPPPS-NH2; N-terminus assumed): the Ki on human Gcg receptor is 160 nM; at human GIP receptor, 0.0494 nM; on human GLP-1R, 29.6 nM. Also, the EC50 was 1.87 nM in assay [1] and 0.284 nM in assay [2].
In the same order, the values of `CC[C@H](C)[C@H](NC(=O)[C@H](Cc1ccccc1)NC(=O)[C@H](C)NC(=O)C(C)(C)NC(=O)[C@H](CCC(N)=O)NC(=O)[C@H](C)NC(=O)[C@H](CCCCNC(=O)COCCOCCNC(=O)COCCOCCNC(=O)CC[C@H](NC(=O)CCCCCCCCCCCCCCCCCCC(=O)O)C(=O)O)NC(=O)[C@H](CCCCN)NC(=O)[C@H](CC(=O)O)NC(=O)[C@H](CC(C)C)NC(=O)[C@H](CC(C)C)NC(=O)[C@@H](NC(=O)[C@H](CO)NC(=O)[C@H](Cc1ccc(O)cc1)NC(=O)[C@H](CC(=O)O)NC(=O)[C@H](CO)NC(=O)[C@@H](NC(=O)[C@H](Cc1ccccc1)NC(=O)[C@@H](NC(=O)CNC(=O)[C@H](CCC(=O)O)NC(=O)C(C)(C)NC(=O)[C@@H](N)Cc1c[nH]cn1)[C@@H](C)O)[C@@H](C)O)[C@@H](C)CC)C(=O)N[C@@H](CCC(=O)O)C(=O)N[C@@H](Cc1ccc(O)cc1)C(=O)N[C@@H](CC(C)C)C(=O)N[C@@H](CC(C)C)C(=O)N[C@@H](CCC(=O)O)C(=O)NC(C)(C)C(=O)NCC(=O)N1CCC[C@H]1C(=O)N[C@@H](CO)C(=O)N[C@@H](CO)C(=O)NCC(=O)N[C@@H](C)C(=O)N1CCC[C@H]1C(=O)N1CCC[C@H]1C(=O)N1CCC[C@H]1C(=O)N[C@@H](CO)C(N)=O` [Example 15] (H-H[Aib]EGTFTSDYSILLDKK([AEEA-AEEA-γGlu-C20 diacid])AQ[Aib]AFIEYLLE[Aib]GPSSGAPPPS-NH2) are 130 nM, 0.284 nM, 2.19 nM, 0.0336 nM and 0.613 nM.
The corresponding values for `CC[C@H](C)[C@H](NC(=O)[C@H](Cc1ccccc1)NC(=O)[C@H](C)NC(=O)C(C)(C)NC(=O)[C@H](CCC(N)=O)NC(=O)[C@H](C)NC(=O)[C@H](CCCCNC(=O)COCCOCCNC(=O)COCCOCCNC(=O)CC[C@H](NC(=O)CCCCCCCCCCCCCCCCCCC(=O)O)C(=O)O)NC(=O)[C@H](CCCCN)NC(=O)[C@H](CC(=O)O)NC(=O)[C@H](CC(C)C)NC(=O)[C@H](CC(C)C)NC(=O)[C@@H](NC(=O)[C@H](CO)NC(=O)[C@H](Cc1ccc(O)cc1)NC(=O)[C@H](CC(=O)O)NC(=O)[C@H](CO)NC(=O)[C@@H](NC(=O)[C@H](Cc1ccccc1)NC(=O)[C@@H](NC(=O)CNC(=O)[C@H](CCC(=O)O)NC(=O)C(C)(C)NC(=O)[C@@H](N)Cc1c[nH]cn1)[C@@H](C)O)[C@@H](C)O)[C@@H](C)CC)C(=O)N[C@@H](CCC(=O)O)C(=O)N[C@@H](Cc1ccc(O)cc1)C(=O)N[C@@H](CC(C)C)C(=O)N[C@H](C(=O)N[C@@H](CCC(=O)O)C(=O)NC(C)(C)C(=O)NCC(=O)N1CCC[C@H]1C(=O)N[C@@H](CO)C(=O)N[C@@H](CO)C(=O)NCC(=O)N[C@@H](C)C(=O)N1CCC[C@H]1C(=O)N1CCC[C@H]1C(=O)N1CCC[C@H]1C(=O)N[C@@H](CO)C(N)=O)[C@@H](C)CC` [Example 16] (H-H[Aib]EGTFTSDYSILLDKK([AEEA-AEEA-γGlu-C20 diacid])AQ[Aib]AFIEYLIE[Aib]GPSSGAPPPS-NH2) are 371 nM, 0.0841 nM, 2.78 nM, 0.0437 nM and 0.975 nM.
In the same order, the values of `CC[C@H](C)[C@H](NC(=O)[C@H](CCCCN)NC(=O)[C@H](CC(=O)O)NC(=O)[C@H](CC(C)C)NC(=O)[C@H](CC(C)C)NC(=O)[C@@H](NC(=O)[C@H](CO)NC(=O)[C@H](Cc1ccc(O)cc1)NC(=O)[C@H](CC(=O)O)NC(=O)[C@H](CO)NC(=O)[C@@H](NC(=O)[C@H](Cc1ccccc1)NC(=O)[C@@H](NC(=O)CNC(=O)[C@H](CCC(=O)O)NC(=O)C(C)(C)NC(=O)[C@@H](N)Cc1c[nH]cn1)[C@@H](C)O)[C@@H](C)O)[C@@H](C)CC)C(=O)N[C@@H](C)C(=O)N[C@@H](CCC(N)=O)C(=O)N[C@@H](CCCCNC(=O)COCCOCCNC(=O)COCCOCCNC(=O)CC[C@H](NC(=O)CCCCCCCCCCCCCCCCCCC(=O)O)C(=O)O)C(=O)N[C@@H](C)C(=O)N[C@@H](Cc1ccccc1)C(=O)N[C@H](C(=O)N[C@@H](CCC(=O)O)C(=O)N[C@@H](Cc1ccc(O)cc1)C(=O)N[C@@H](CC(C)C)C(=O)N[C@@H](CC(C)C)C(=O)N[C@@H](CCC(=O)O)C(=O)NC(C)(C)C(=O)NCC(=O)N1CCC[C@H]1C(=O)N[C@@H](CO)C(=O)N[C@@H](CO)C(=O)NCC(N)=O)[C@@H](C)CC` [Example 17] (H-H[Aib]EGTFTSDYSILLDKIAQK([AEEA-AEEA-γGlu-C20 diacid])AFIEYLLE[Aib]GPSSG-NH2; N-terminus assumed) are 261 nM, 0.606 nM, 7.63 nM, 0.152 nM and 5.81 nM.

The values are drawn from patent US12252524B2, “GIP/GLP1 co-agonist compounds” (Eli Lilly and Company, priority 2018, dated 2025).
